# From patent US7655224B2, “Neural stem cells and use thereof for brain tumor therapy” (priority 1998, dated 2010)
# Columns and labels:
# [1] = system: neural stem cells (clone C17.2); test: Cell number and growth of neural stem cells under mimosine and GCV; assay type: cell-based, murine
# Description: Medium was changed every third day. […] Medium was replaced on day 4 and day 6.
# In contrast, untreated neural stem cell cultures continued proliferating over the same period, reaching a density of 1.7×10^6 cells/ml on day 10. […] Re-growth of neural stem cells occurred at a faster rate if cells were additionally rinsed and split 1:8 after removal of drug(s) on day 10.
# [2] = system: neural stem cells (clone C17.2); test: Cytopathic effect and morphology of neural stem cells (drug treatment, virus infection); details: for cell morphology: cells below confluency, mimosine 400 μM
# Experimental: Neural stem cells were grown in 24-well plates until they reached confluency (approximately 400,000 cells/well). Medium was changed every third day. […] Medium was replaced on day 4 and day 6. […] Cell culture medium was changed again on days 10, 13 and 17. […] Cell morphology and cells/well for different treatment conditions were determined in duplicate on days 0, 4, 7, 10, 13, and 17. The number of cells/well was determined using a Coulter Counter (Coulter Electronics, Hialeah, Fla.).
# Virus titers in the conditioned medium—and in some experiments also in cell lysates—were determined by standard plaque tests on Vero cells. […] Also, the influence of the expression of viral proteins VP 16 and ICP6 (RR), mediated by infection with amplicon vectors, on the replication of hrR3 mutant virus was determined at different time points after infection of neural stem cells. Stocks of helper-free packaged amplicons HSV 16. HSVRR and HSVIacZ (100 μl each) were added to the wells on day 7, 10, or 13. Three days later titers of hrR3 in the medium were determined by plaque assay.
# The genotype of hrR3 is RR- LacZ^+ [Goldstein and Weller, Virology 166: 141-51, 1988] with the lacZ gene under control of the ICP6 early viral promoter. RRP450 was derived from hrR3 by replacement of the lacZ gene with the cytochrome P450 gene [Chase et al., Nat Biotechnol 16: 444-8, 1998].
# hrR3 = test: Dexamethasone treatment of hrR3-infected, mimosine/GCV-treated neural stem cell cultures; assay type: cell-based, HSV-1; details: dexamethasone 10^-7 M on day 10; detection level
Structure (SMILES),"cell viability ([1]; 5 μM added from day 6, compared to mimosine alone)",cell morphology [2],virus titers in the media and cell lysates (hrR3),treatment time at which block of cell division and viral replication is reversible [1] [days],"Cells/well ([1]; 400 μM, 4 and 7 days after beginning of treatment)","cell number of infected cultures kept on treatment ([1]; infected MOI 1 day 7, day 13 and 17)",growth after removal of drug ([1]; removed on day 10),virally induced CPE in presence of drug [2],"CPE ([2]; day 13, infected day 7, split 1:8 into drug-free media day 10)","CPE ([2]; day 13, infected, not split)","CPE ([2]; day 17, infected and split)","CPE ([2]; day 17, infected, non-split)",cytopathic effect associated with virus replication ([2]; infection at MOI of 10),cytopathic effect of drug alone ([2]; uninfected)
"Nc1nc(O)c2ncn(COC(CO)CO)c2n1 [GCV, ganciclovir]",did not significantly affect cell viability,did not change this morphology,,,,,,,,,,,,
C[C@@H]1C[C@H]2[C@@H]3CCC4=CC(=O)C=C[C@]4(C)[C@@]3(F)[C@@H](O)C[C@]2(C)[C@@]1(O)C(=O)CO [dexamethasone],,,"< 10 pfu/100,000 cells",,,,,,,,,,,
NC(Cn1ccc(=O)c(O)c1)C(=O)O (stereo not drawn) [mimosine],,developed extensions and a more neuronal shape,,≥ 13,"around 400,000 cells",remained at the same cell number,growth of neural stem cells resumed,prevented virally induced CPE,some cytopathic effect,no CPE,extensive CPE,some CPE,typical cytopathic effect,did not induce a significant cytopathic effect
